Assay results published in US11944704B2, “Coenzyme Q10 aerosol” (UNM Rainforest Innovations, priority 2015, dated 2024).

Assay: Maximum solubility of CoQ10 in coconut oil
Type: physicochemical
Settings: in neobee (coconut oil)

- maximum solubility: 6%
Compound: COC1=C(OC)C(=O)C(C/C=C(\C)CC/C=C(\C)CC/C=C(\C)CC/C=C(\C)CC/C=C(\C)CC/C=C(\C)CC/C=C(\C)CC/C=C(\C)CC/C=C(\C)CCC=C(C)C)=C(C)C1=O [Emulsion Q10, 2-[(2E,6E,10E,14E,18E,22E,26E,30E,34E)-3,7,11,15,19,23,27,31,35,39-Decamethyltetraconta-2,6,10,14,18,22,26,30,34,38-decaenyl]-5,6-dimethoxy-3-methylcyclohexa-2,5-diene-1,4-dione]
